In the assay the target is T1, mouse SGLT4 (Mus musculus, UniProt Q8VDT1).
T1 construct: expressed in transfected cells; host or cells: HEK293T
T1 sequence (Q8VDT1 1-685): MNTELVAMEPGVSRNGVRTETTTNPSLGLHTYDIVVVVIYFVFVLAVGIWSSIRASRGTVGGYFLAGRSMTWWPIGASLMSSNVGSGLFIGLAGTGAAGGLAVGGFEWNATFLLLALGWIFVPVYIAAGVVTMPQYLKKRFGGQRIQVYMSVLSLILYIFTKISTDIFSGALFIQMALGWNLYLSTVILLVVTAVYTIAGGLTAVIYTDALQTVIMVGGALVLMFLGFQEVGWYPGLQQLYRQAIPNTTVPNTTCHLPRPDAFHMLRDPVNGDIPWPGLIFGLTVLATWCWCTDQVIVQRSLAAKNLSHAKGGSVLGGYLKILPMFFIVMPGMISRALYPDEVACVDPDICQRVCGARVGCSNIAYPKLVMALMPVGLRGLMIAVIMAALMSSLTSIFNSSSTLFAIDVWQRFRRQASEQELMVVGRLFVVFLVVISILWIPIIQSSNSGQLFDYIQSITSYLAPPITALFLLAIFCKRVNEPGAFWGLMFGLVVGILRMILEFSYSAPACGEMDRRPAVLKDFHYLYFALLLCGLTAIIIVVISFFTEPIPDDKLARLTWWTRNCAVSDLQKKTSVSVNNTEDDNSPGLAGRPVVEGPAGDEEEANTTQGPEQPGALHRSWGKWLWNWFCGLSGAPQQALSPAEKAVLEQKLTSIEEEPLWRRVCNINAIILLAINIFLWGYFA
The assay can be described thus: Inhibition of 50 µM mannose transport in HEK293T cells expressing mouse SGLT4. As to conditions: 10 mM 1,5-AG. In kind it is cell-based. As for the experimental part: Supplementary Fig. 4: Transport activities for 1,5-anhydroglucitol and mannose of recombinant mouse SGLT4 and SGLT5 isoforms measured in HEK293T cells.
Transport was measured in 24 well plates with 0.6x10^6 cells during 30 mins at 37°C in 5% CO2 in the presence of the indicated concentrations of 2-[1H+3H]-1,5-AG for both mSGLT4 (A) and mSGLT5 (B) and U-[12C+14C]-mannose (C) for mSGLT4. The saturation curves for the transport activities and the derived kinetic constants (Km and Vmax) are shown and indicate that mSGLT4 appears to be able to transport 1,5-anhydroglucitol but with a very low affinity (Km > 5 mM – panel A) compared to mannose (Km = 0.2 mM – panel C), while mSGLT5 transports efficiently 1,5-anhydroglucitol (Km = 0.5 mM – panel B). (D) 10 mM 1,5- […]
U-[12C+14C]-mannose) for both the human (hSGLT4) and the mouse (mSGLT4) isoforms of […]
(also on this page, place not known: Transport of (pmol/min/100 cells) Transport of (pmol/min/100 cells) 000 Transport of 1,5-AG (pmol/min/100 000 cells) 000 hSGLT4 mSGLT4 Mannose transport activity (% of the value at [12C+14C]-mannose) 50 µM mannose 1,5-AG)

Molecules are shown by their SMILES.

As to `OC[C@H]1OC[C@H](O)[C@@H](O)[C@@H]1O` [1,5-AG, 1,5-anhydroglucitol], the “inhibition of mouse SGLT4 transport activity” value was “barely inhibited”.

The values are drawn from paper PMC10439028, “SGLT5 is the renal transporter for 1,5-anhydroglucitol, a major player in two rare forms of neutropenia” (Cellular and Molecular Life Sciences: CMLS, 2023).
